In article PMC5479826, “Determination of Crucial Immunogenic Epitopes in Major Peanut Allergy Protein, Ara h2, via Novel Nanoallergen Platform” (Scientific Reports, 2017):

Tested on: patient sera IgEs
Experiment: ELISA binding assay with patient sera
Parameters: species or system human
Protocol: A high binding 96 well plate was incubated with anti-Human IgE in Carbonate-Bicarbonate buffer (Sigma) at a concentration of 3 nM for 16 hours at 4 °C. Plate was washed with washing buffer (PBS with 0.5% tween 20) and then blocked with blocking buffer (5% BSA in PBS with 0.1% tween 20) for 1 hr at room temperature. Plate was washed with automatic plate washer (AquaMax 2000), then varying concentrations of either Ara h2-Biotin (Indoors Biotechnologies) or FITC-peptide 2 conjugate in blocking buffer for 1 hour. Plate was washed again and then either streptavidin-HRP (1:5 000 dilution) or anti-FITC HRP IgG (1:5000 dilution) was added in blocking buffer. After another washing step, Amplex Red substrate was added (Invitrogen) and plate fluorescence was read at 5 minute intervals according to manufacturer’s instructions.

Question: What does the source list for ERDPYSP^OHSQDPYSP^OHS [Epitope 2]?
Answer: EC50 (Fig. S-2, patient serum 1 on anti-IgE coated plate, Ara h 2-Biotin or FITC-tagged epitope 2 peptide): 465 ± 200 nM; Binding to patient sera IgEs in ELISA (detectability) (serum 1, result in words): detectable binding
